Measurements from PubChem BioAssay AID1963849 (Molecular Pharmacology Branch, DTP, NCI, 2024).

Tested on: 299254-011-R-J1-PDC complex spheroid viability
Experiment: Anticancer human tumor 299254-011-R-J1-PDC patient-derived melanoma cell line growth inhibition [POLQ]
Conditions: for IC50: curve of first compound; for viability, T/C: stronger effect = lower value
Summary of the method: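 Three-cell-type spheroids modelling solid tumor plus stroma served as the readout system; POL inhibitors were tested individually and in combination, concentration ranges set by clinical Cmax where known.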

[1] = second compound 0.0316 µM, first compound 0.0316 µM
[2] = second compound 0.0316 µM, first compound 0.1 µM
[3] = second compound 0.0316 µM, first compound 0.316 µM
[4] = second compound 0.0316 µM, first compound 1 µM
[5] = second compound 0.0316 µM, first compound 3.16 µM
[6] = second compound 0.0316 µM, first compound 10 µM
[7] = second compound 0.1 µM, first compound 0.0316 µM
[8] = second compound 0.1 µM, first compound 0.1 µM
[9] = second compound 0.1 µM, first compound 0.316 µM
[10] = second compound 0.1 µM, first compound 1 µM
[11] = second compound 0.1 µM, first compound 3.16 µM
[12] = second compound 0.1 µM, first compound 10 µM
[13] = second compound 0.316 µM, first compound 0.0316 µM
[14] = second compound 0.316 µM, first compound 0.1 µM
[15] = second compound 0.316 µM, first compound 0.316 µM
[16] = second compound 0.316 µM, first compound 1 µM
[17] = second compound 0.316 µM, first compound 3.16 µM
[18] = second compound 0.316 µM, first compound 10 µM
[19] = second compound 1 µM, first compound 0.0316 µM
[20] = second compound 1 µM, first compound 0.1 µM
[21] = second compound 1 µM, first compound 0.316 µM
[22] = second compound 1 µM, first compound 1 µM
[23] = second compound 1 µM, first compound 3.16 µM
[24] = second compound 1 µM, first compound 10 µM
[25] = second compound 3.16 µM, first compound 0.0316 µM
[26] = second compound 3.16 µM, first compound 0.1 µM
[27] = second compound 3.16 µM, first compound 0.316 µM
[28] = second compound 3.16 µM, first compound 1 µM
[29] = second compound 3.16 µM, first compound 3.16 µM
[30] = second compound 3.16 µM, first compound 10 µM
[31] = second compound 10 µM, first compound 0.0316 µM
[32] = second compound 10 µM, first compound 0.1 µM
[33] = second compound 10 µM, first compound 0.316 µM
[34] = second compound 10 µM, first compound 1 µM
[35] = second compound 10 µM, first compound 3.16 µM
[36] = second compound 10 µM, first compound 10 µM
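Also: spheroids exposed to drugs for one week before measurement.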
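For viability, T/C in this document: percent viability relative to DMSO vehicle control taken as 100%.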

`COc1cc2cc(C(=O)CCC(=O)O)sc2cc1OC` + Nc1ccc(C#CCN(C(=O)Cc2ncc(C(F)(F)F)cc2C(F)(F)F)c2ccc(F)cc2)nn1 gave an IC50 (second compound 0.0316 µM) greater than 10 µM, an IC50 (second compound 0.1 µM) greater than 10 µM and an IC50 (second compound 0.316 µM) greater than 10 µM. The IC50 (second compound 1 µM) was greater than 10 µM, the IC50 (second compound 3.16 µM) was greater than 10 µM and the IC50 (second compound 10 µM) was greater than 10 µM. It also gave a viability, T/C [1] of 99%, a viability, T/C [2] of 97.8% and a viability, T/C [3] of 85.9%. For the same molecule, the viability, T/C [4] was 94%, the viability, T/C [5] was 111% and the viability, T/C [6] was 106%. It also gave a viability, T/C [7] of 96.9%, a viability, T/C [8] of 83.8% and a viability, T/C [9] of 82.3%. It also gave a viability, T/C [10] of 105%, a viability, T/C [11] of 111% and a viability, T/C [12] of 102%. The viability, T/C [13] was 99.3%, the viability, T/C [14] was 102% and the viability, T/C [15] was 90.5%. The viability, T/C [16] was 86.3%, the viability, T/C [17] was 97.5% and the viability, T/C [18] was 102%. It also gave a viability, T/C [19] of 77.2%, a viability, T/C [20] of 94.6% and a viability, T/C [21] of 92.4%. It also gave a viability, T/C [22] of 91.4%, a viability, T/C [23] of 94.7% and a viability, T/C [24] of 93.4%. It also gave a viability, T/C [25] of 109%, a viability, T/C [26] of 87.8% and a viability, T/C [27] of 97.4%. For the same molecule, the viability, T/C [28] was 102%, the viability, T/C [29] was 100% and the viability, T/C [30] was 115%. It also gave a viability, T/C [31] of 104%, a viability, T/C [32] of 88% and a viability, T/C [33] of 92.6%. It also gave a viability, T/C [34] of 99.4%, a viability, T/C [35] of 86.7% and a viability, T/C [36] of 87.1%.

With `O=C(Nc1ccc(O)c(NS(=O)(=O)c2ccc(F)cc2)c1)c1ccc(-c2ccccc2)cc1` + Nc1ccc(C#CCN(C(=O)Cc2ncc(C(F)(F)F)cc2C(F)(F)F)c2ccc(F)cc2)nn1 the IC50 (second compound 0.0316 µM) was 9.16 µM, the IC50 (second compound 0.1 µM) was 8.49 µM and the IC50 (second compound 0.316 µM) was 8.65 µM. The IC50 (second compound 1 µM) was 9.34 µM, the IC50 (second compound 3.16 µM) was 8.68 µM and the IC50 (second compound 10 µM) was greater than 10 µM. It also gave a viability, T/C [1] of 104%, a viability, T/C [2] of 119% and a viability, T/C [3] of 97.4%. The viability, T/C [4] was 98.2%, the viability, T/C [5] was 97.3% and the viability, T/C [6] was 46.1%. It also gave a viability, T/C [7] of 102%, a viability, T/C [8] of 99.8% and a viability, T/C [9] of 91.4%. It also gave a viability, T/C [10] of 101%, a viability, T/C [11] of 95.6% and a viability, T/C [12] of 42.4%. The viability, T/C [13] was 108%, the viability, T/C [14] was 88.4% and the viability, T/C [15] was 107%. It also gave a viability, T/C [16] of 91.8%, a viability, T/C [17] of 85.9% and a viability, T/C [18] of 44.9%. For the same molecule, the viability, T/C [19] was 108%, the viability, T/C [20] was 94.5% and the viability, T/C [21] was 95.7%. It also gave a viability, T/C [22] of 97.5%, a viability, T/C [23] of 87.3% and a viability, T/C [24] of 47.2%. The viability, T/C [25] was 106%, the viability, T/C [26] was 92.1% and the viability, T/C [27] was 92.7%. The viability, T/C [28] was 86.8%, the viability, T/C [29] was 79.9% and the viability, T/C [30] was 45.1%. It also gave a viability, T/C [31] of 83.2%, a viability, T/C [32] of 92.4% and a viability, T/C [33] of 88%. It also gave a viability, T/C [34] of 76%, a viability, T/C [35] of 74.7% and a viability, T/C [36] of 50.6%.
